What was measured:
[1] = test system: articular chondrocytes; assay: Increase of matrix production of articular chondrocytes (Alcian blue staining of proteoglycan); assay type: cell-based, rabbit; conditions: for Proteoglycan Production (%): cultivation until day 5, vehicle = 100; for matrix production promoting activity: summary of Table 1
Protocol: Four NZW line rabbits (Kitayama Labes., Co Ltd.; male; 4-week-old) were sacrificed with bleeding under ether anesthesia and femur knee joints were collected aseptically. The collected knee joints were stored in phosphate buffer (pH 7.2) containing 0.2% glucose and only the cortical layer of knee joint was scrapped with a surgical knife into a 50 ml tube containing phosphate buffer (pH 7.2) containing 0.2% glucose. The collected knee joint cortical layer was cut into as small sections as possible on a dish with a razor and shaken at 37° C. for 15 minutes in phosphate buffer containing 0.2% glucose, supplied with 10× trypsin-ethylenediamine tetraacetic acid (EDTA)·4 Na salt (GIBCO; Cat. No. 15400-054) (50 ml, with 100 mg of trypsin and 40 mg of EDTA·4Na; pH 7.2). After shaking, the sample was centrifuged (1,400 rpm) to collect precipitates, and the precipitates were washed twice with 40 ml of phosphate buffer containing 0.2% glucose. The washed precipitates were combined with 40 ml of serum-free α-minimum essential medium (MEM: GIBCO; Cat: No. 12571-063) containing 60 mg of collagenase for cell diffusion (Wako Pure Chemical Industries, Ltd., 034-10533) and transferred to a 100 ml beaker containing a sterilized stirrer bar. Under stirring with the stirrer bar, the collagenase digestion was carried on for about 1 hour in a CO2 incubator at 37° C. Cartilage fragments were removed from the collagenase-treated cells using a […] Cell Strainer ([FALCON; Cat. No. 2340]). To the residual treated cells was added 10 ml of α-MEM medium containing 10% fetal calf serum (FCS), and centrifuged (1,400 rpm). The precipitates were washed with 10% FCS-αMEM medium twice, suspended in appropriate volume of the same medium and the resultant suspension was seeded into collagen type II (Wako Pure Chemical Industries, Ltd., 033-13901)-coated plates (48 well) at 20,000 cells/well. On the next day, the medium was replaced with 10% FCS-αMEM medium.
When cells reached to confluent after the medium exchange procedure above, the medium for test group was replaced with test compound-containing medium (including 0.1% dimethylsulfoxide as a vehicle). As a medium to which a test compound is added, 10% FCS-αMEM medium containing 0.2 mM ascorbic acid was used. The day on which test compound-containing medium was added for the first time was defined as “day 1”. The medium exchange with the same medium was again conducted at day 3 and the cultivation continued until day 5. As to the control group, the medium was exchanged at the same time using the same medium as the test group except that it is free of test compound (containing vehicle only), and the cultivation was carried out in the same manner. After completion of cultivation, the supernatant was removed from the culture medium. Cells were fixed by addition of 0.25 ml of neutral buffer containing 4% paraformaldehyde and incubation for 2 hours. Cells were washed three times with 1 ml of phosphate buffer (pH 7.2) and then stained for 4 hours with 0.1% Alcian blue 8GX (Sigma; A3157) dissolved in 0.1 M hydrochloric acid, which Alcian blue selectively stains cartilage matrix proteoglycan. After staining, the cells were washed 3 times with 1 ml of phosphate buffer (pH 7.2). Alcian blue which had stained cartilage matrix was dissolved with 0.25 ml of aqueous 6 M guanidine hydrochloride solution and a portion of the solution was used to determine the absorbance at 620 nm. The amounts of Alcian blue used for staining was calculated from the absorbance, which in turn was used for the estimation of the amount of matrix (proteoglycan).

[2] = test system: type II collagen gene; assay: Expression of gene encoding cartilage matrix protein (Northern hybridization), type II collagen; assay type: cell-based, rabbit; conditions: cultured 4 days, control = 100%
Protocol: (§1) Total RNA was extracted with ISOGEN (Nippon Gene Co., Ltd.) from rabbit knee articular chondrocytes cultured for 4 days according to the same manner as Experimental Example 1 in the presence of Compound (1) at a final concentration of 1×10^−4 M or 1×10^−5 M, and 15 μg of the total RNA was dissolved in 4.5 μl of a sterilized water. This solution was combined with 2 μl of 5×MOPS buffer, 3.5 μl of formaldehyde and 10 μl of formamide, and denatured at 90° C. for 15 minutes. The mixture was then electrophoresed on 1% agarose gel in the presence of formaldehyde. After completion of electrophoresis, RNA was transferred to a nylon membrane (Amersham Pharmacia Biotech) overnight by capillary method. The RNA was fixed to the nylon membrane by UV crosslinking and subjected to prehybridization at 60° C. for 2 hours in 50 ml of hybridization solution (6×SSC, 5×Denhart's solution, 0.5% SDS, 100 μg/ml heat-denatured salmon sperm DNA, free of 50% formamide).
(§2) Then, DNA probes of mouse type II collagen gene and human aggrecan. […] The nylon membrane was subjected to an autoradiography and exposed to X-ray film using LAS-1000 (Fuji Photo Film Co., Ltd.) A relative amount of each RNA was measured using Image Gause (Fuji Photo Film Co., Ltd.) and corrected with […] (internal RNA: internal control). The gene expression rate in test group was calculated by assuming that in control group as 100%.

[3] = test system: aggrecan gene; assay: Expression of gene encoding cartilage matrix protein (Northern hybridization), aggrecan; assay type: cell-based, rabbit; conditions: cultured 4 days, control = 100%
Protocol: as §1, §2

[4] = test system: cAMP hydrolytic PDE expressed in human articular cartilage (fraction Nos. 28-30); assay: Inhibition of cAMP hydrolyzing activity of fraction Nos. 28-30 of human articular cartilage extract; assay type: biochemical
Protocol: From the human knee articular cartilage was isolated on surgery of osteoarthrosis patients. Cartilage portion was scrapped with a surgery knife, washed with ice-cold phosphate buffer and stored at −80° C. The cartilage tissues were milled at −80° C. and then, scattered into pieces with homogenizer (Kinematica A.G., Polytron) in ice-cold homogenization buffer (20 mM Tris-HCl, pH 8.0, 1 mM ethylene glycol bis(β-aminoethylether)-N,N,N′,N′-tetraacetic acid, 1 mM dithiothreitol, 10 μg/ml leupeptin, 5 mM benzamidine, 0.2 mM phenylmethylsulfonyl fluoride, 1 mM sodium azide and 5 mM mercaptoethanol). The resultant homogenate was centrifuged (100,000×g; 30 minutes) to separate supernatant.
The above supernatant was loaded on a Mono Q Sepharose High Performance column (Amersham Pharmacia Biotech) equilibrated with elution buffer (20 mM Tris-HCl, pH 8.0, 1 mM ethylene glycol bis(β-aminoethylether)-N,N,N′,N′-tetraacetic acid, 1 mM dithiothreitol, 2 μg/ml leupeptin, 5 mM benzamidine). After washing the column with 20 ml of elution buffer, proteins were eluted into 1 ml fractions by aqueous sodium chloride solution (concentration gradient: 0 to 1000 mM, 70 ml) under ice-cooling. Each fraction was subjected to the determination of hydrolytic activity (PDE activity) toward cAMP and cGMP as a substrate.
The determination of PDE activity was performed by a radio-labeled nucleic acid assay. That is, the reaction was initiated by adding from 10 to 50 μl of elution fraction to 500 μl of assay buffer (50 mM Tris-HCl, pH 8.0, 5 mM magnesium chloride, 4 mM 2-mercaptoethanol) containing 1 μM of unlabeled cAMP and 22 nM of [^3H]-cAMP (Amersham Pharmacia Biotech).
After incubation at 37° C. for 30 minutes, the reaction was quenched by boiling for 1.5 minutes. Then, 100 μl of 1 mg/ml Crtalus atrox snake venom was added and incubated at 37° C. for 30 minutes. After addition of 500 μl of methanol, the reaction solution was subjected to Dowex column (1×8-400). To each eluate was added a liquid scintillation cocktail and the radio activity was measured.
The inhibitory activity of PDE4 inhibitor on fraction Nos. 28-30 containing potent cAMP hydrolyzing activity was measured according to the above-mentioned radio-labeled nucleic acid assay. The test compounds are Compound (1), Compound (2), Compound (11), Compound (44) and Compound (27).

[5] = test system: rabbit articular chondrocytes; assay: Matrix production of rabbit articular chondrocytes in the presence of IL-1; assay type: cell-based; conditions: 1 × 10^−6 M; IL-1β 1 ng/ml; until day 3; vehicle = 100
Protocol: Four NZW line rabbits (Kitayama Labes., Co Ltd.; male; 4-week-old) were sacrificed with bleeding under ether anesthesia and knee joints of femur side were collected aseptically. Only the cortical layer was scrapped with a surgical knife in phosphate buffer (pH 7.2) containing 0.2% glucose and then placed into a 50 ml tube containing phosphate buffered saline containing 0.2% glucose. The collected knee joint cortical layer was cut into as small sections as possible on a dish with a razor, combined with 50 ml of phosphate buffer (100 mg trypsin, 40 mg EDTA·4 Na; pH 7.2) containing 0.2% glucose, supplied with 10× trypsin-ethylenediamine tetraacetic acid tetra sodium salt (EDTA·4Na: GIBCO; Cat. No. 15400-054) and shaken at 37° C. for 15 minutes.
After shaking, the precipitates were collected by centrifugation (1,400 rpm) and washed twice with 40 ml of phosphate buffer (pH 7.2) with 0.2% glucose.
To the washed precipitates was added 40 ml of α-minimum essential medium (MEM: GIBCO; Cat. No. 12571-063) containing 60 mg of collagenase for cell diffusion (Wako Pure Chemical Industries, Ltd., 034-10533) and antibiotics (200 U/ml penicillin G and 200 μg/ml streptomycin sulfate) (GIBCO; Cat. No. 15140-122), and the mixture was transferred to a 100 ml beaker containing a sterilized stirrer bar.
The incubation was conducted in a CO2 incubator at 37° C. for 30 minutes under stirring with a stirrer bar. Deoxyribonuclease I (Takara Shuzo Co., LTD.; Cat. No. 2210A) was then added at a concentration of 70 U/ml. The cultivation was conducted under the same condition for another 30 minutes. The supernatant of the culture was collected in another vessel and the remaining cartilage slips were then cultured again for about 30 minutes in freshly prepared α-minimum essential medium containing 60 mg of collagenase and 70 U/m1 deoxyribonuclease I.
To the previously collected culture supernatant and the last culture, from which cartilage slips had been removed using a 40 μm Cell Strainer (FALCON; Cat. No. 2340), 10 ml of α-minimum essential medium (MEM: GIBCO; Cat. No. 12571-063) containing 10% fetal calf serum (GIBCO Cat. No. 10099-141) and antibiotics (200 U/ml penicillin G and 200 μg/ml streptomycin sulfate) (GIBCO; Cat. No. 15140-122) was added and centrifuged (1,400 rpm, 10 minutes).
The precipitates were washed twice with α-minimum essential medium containing 10% fetal calf serum and antibiotics, suspended with an appropriate volume of the same medium, and seeded into 48-well plates (20,000 cells/well). […]
After staining, the cells were washed 3 times with 1 ml of phosphate buffer (pH 7.2). Alcian blue which had stained cartilage matrix was dissolved with 0.25 ml of 6 M aqueous guanidine hydrochloride solution and a portion of which was used to determine the absorbance at 620 nm. […]

Row | Structure (SMILES) | Proteoglycan Production (%) ([1]; 1 × 10^−5 M) | matrix production promoting activity [1] | Proteoglycan Production (%) ([1]; 1 × 10^−6 M) | Proteoglycan Production (%) [5] | also measured
1 | CCOc1cc2cc(CO)c(CO)c(-c3ccn(CCOC)c(=O)c3)c2cc1OCC [Compound (1)] | 133% | exert matrix production promoting activity | – | – | Proteoglycan Production (%) ([1]; 1 × 10^−4 M): 144%; Expression of Type II collagen gene (%) ([2]; 10^−4 M): 406%; Expression of Type II collagen gene (%) ([2]; 10^−5 M): 278%; Expression of aggrecan gene (%) ([3]; 10^−4 M): 4262%; Expression of aggrecan gene (%) ([3]; 10^−5 M): 2693%; inhibition of the hydrolytic activity of the fraction ([4]; fraction Nos. 28-30, FIG. 4): inhibits the hydrolytic activity of the fraction strongly; IC50 for fraction(s) ([4]; method of Journal of Medicinal Chemistry, vol. 42, 1088-1099 (1999), values only in FIG. 4): consistent with the IC50 of PDE4 inhibition activity described in the same literature
2 | COc1ccc(/C(C)=N/OC(N)=O)cc1OC1CCCC1 [Compound (9)] | 138% | exert matrix production promoting activity | 128% | – | –
3 | COc1ccc([C@H](Cc2ccncc2)c2ccccc2)cc1OC1CCCC1 [Compound (21)] | 120% | exert matrix production promoting activity | 115% | – | –
4 | COc1ccc([C@]2(C#N)CC[C@H](C(=O)O)CC2)cc1OC1CCCC1 [Compound (27)] | 131% | exert matrix production promoting activity | 129% | – | –
5 | COc1cc2c(cc1OC)C(c1ccnc(-n3ccc4c(OCCN5CCOCC5)cccc4c3=O)c1)=N[C@H](CO)C2 [Compound No. 52] | – | – | – | 209% | –
6 | COc1cc2cc(CO)c(CO)c(-c3ccnc(-n4ccc5ccccc5c4=O)c3)c2cc1OC [Compound No. 56] | – | – | – | 168% | –

Reference: patent publication US8399466B2, “Composition for regenerative treatment of cartilage disease” (Mitsubishi Tanabe Pharma Corporation, priority 2001, dated 2013)
